According to ChEMBL document CHEMBL5365394, “Design, synthesis and biological evaluation of novel spiro-quinazolinone derivatives as chitin synthase inhibitors and antifungal agents” (Eur J Med Chem, 2023):
Converted amounts (≈) assume the structure as drawn.

Columns and labels:
[1] = test system: Candida tropicalis; experiment: Inhibition of Candida tropicalis ATCC 750 chitin synthase using […] as substrate at 300 ug/ml incubated for 1 hr by absorbance based assay relative to control; conditions: dose 300.0 µg/ml
[2] = Inhibition of Candida tropicalis ATCC 750 chitin synthase using UDP-GlcNAc as substrate incubated for 1 hr by absorbance based assay
[3] = test system: Candida albicans; experiment: Antifungal activity against Candida albicans ATCC 76615 assessed as fungal growth inhibition incubated for 24 hrs by two-fold serial dilution method; type: functional
[4] = test system: Aspergillus flavus; experiment: Antifungal activity against Aspergillus flavus ATCC 16870 assessed as fungal growth inhibition incubated for 24 hrs by two-fold serial dilution method; type: functional
[5] = test system: Aspergillus fumigatus; experiment: Antifungal activity against Aspergillus fumigatus GIMCC 3.19 assessed as fungal growth inhibition incubated for 24 hrs by two-fold serial dilution method; type: functional
[6] = test system: Cryptococcus neoformans; experiment: Antifungal activity against Cryptococcus neoformans ATCC 32719 assessed as fungal growth inhibition incubated for 24 hrs by two-fold serial dilution method; type: functional
[7] = test system: Aspergillus flavus; experiment: Antifungal activity against Aspergillus flavus ATCC 16870 assessed as inhibition of cell wall synthesis incubated for 24 hrs in presence of sorbitol; type: functional
[8] = test system: Candida albicans; experiment: Antifungal activity against Candida albicans ATCC 76615 assessed as inhibition of cell wall synthesis incubated for 24 hrs in presence of sorbitol; type: functional
[9] = test system: Aspergillus fumigatus; experiment: Antifungal activity against Aspergillus fumigatus GIMCC 3.19 assessed as inhibition of cell wall synthesis incubated for 24 hrs in presence of sorbitol; type: functional
[10] = test system: Cryptococcus neoformans; experiment: Antifungal activity against Cryptococcus neoformans ATCC 32719 assessed as inhibition of cell wall synthesis incubated for 24 hrs in presence of sorbitol; type: functional
[11] = test system: Candida albicans; experiment: Antifungal activity against Fluconazole-resistant Candida albicans ATCC 76615R assessed as fungal growth inhibition; type: functional
[12] = test system: Aspergillus flavus; experiment: Antifungal activity against Fluconazole-resistant Aspergillus flavus ATCC 16870R assessed as fungal growth inhibition; type: functional
[13] = test system: Aspergillus fumigatus; experiment: Antifungal activity against Fluconazole-resistant Aspergillus fumigatus GIMCC 3.19R assessed as fungal growth inhibition; type: functional
[14] = test system: Cryptococcus neoformans; experiment: Antifungal activity against Fluconazole-resistant Cryptococcus neoformans ATCC 32719R assessed as fungal growth inhibition; type: functional
[15] = test system: Candida albicans; experiment: Antifungal activity against Micafungin-resistant Candida albicans ATCC 76615R assessed as fungal growth inhibition; type: functional
[16] = test system: Candida albicans; experiment: Synergistic antifungal activity against Candida albicans ATCC 76615 assessed as fluconazole MIC incubated for 24 hrs in by checkerboard broth microdilution method; type: functional
[17] = test system: Aspergillus fumigatus; experiment: Synergistic antifungal activity against Aspergillus fumigatus GIMCC 3.19 assessed as polyoxin B MIC incubated for 24 hrs by checkerboard broth microdilution method; type: functional
[18] = test system: Aspergillus flavus; experiment: Synergistic antifungal activity against Aspergillus flavus ATCC 16870 assessed as fluconazole MIC incubated for 24 hrs in by checkerboard broth microdilution method; type: functional
[19] = test system: Aspergillus fumigatus; experiment: Synergistic antifungal activity against Aspergillus fumigatus GIMCC 3.19 assessed as fluconazole MIC incubated for 24 hrs in by checkerboard broth microdilution method; type: functional
[20] = test system: Cryptococcus neoformans; experiment: Synergistic antifungal activity against Cryptococcus neoformans ATCC 32719 assessed as fluconazole MIC incubated for 24 hrs in by checkerboard broth microdilution method; type: functional
[21] = test system: Candida albicans; experiment: Synergistic antifungal activity against Candida albicans ATCC 76615 assessed as polyoxin B MIC incubated for 24 hrs by checkerboard broth microdilution method; type: functional
[22] = test system: Aspergillus flavus; experiment: Synergistic antifungal activity against Aspergillus flavus ATCC 16870 assessed as polyoxin B MIC incubated for 24 hrs by checkerboard broth microdilution method; type: functional
[23] = test system: Cryptococcus neoformans; experiment: Synergistic antifungal activity against Cryptococcus neoformans ATCC 32719 assessed as polyoxin B MIC incubated for 24 hrs in by checkerboard broth microdilution method; type: functional
[24] = test system: Candida albicans; experiment: Additive antifungal activity against Candida albicans ATCC 76615 assessed as fractional inhibitory concentration index incubated for 24 hrs in presence of fluconazole by checkerboard broth microdilution method; type: functional
[25] = test system: Cryptococcus neoformans; experiment: Additive antifungal activity against Cryptococcus neoformans ATCC 32719 assessed as fractional inhibitory concentration index incubated for 24 hrs in presence of fluconazole by checkerboard broth microdilution method; type: functional
[26] = test system: Aspergillus fumigatus; experiment: Synergistic antifungal activity against Aspergillus fumigatus GIMCC 3.19 assessed as fractional inhibitory concentration index incubated for 24 hrs in presence of fluconazole by checkerboard broth microdilution method; type: functional
[27] = test system: Candida albicans; experiment: Synergistic antifungal activity against Candida albicans ATCC 76615 assessed as fractional inhibitory concentration index incubated for 24 hrs in presence of polyoxin B by checkerboard broth microdilution method; type: functional
[28] = test system: Aspergillus flavus; experiment: Additive antifungal activity against Aspergillus flavus ATCC 16870 assessed as fractional inhibitory concentration index incubated for 24 hrs in presence of polyoxin B by checkerboard broth microdilution method; type: functional
[29] = test system: Aspergillus fumigatus; experiment: Synergistic antifungal activity against Aspergillus fumigatus GIMCC 3.19 assessed as fractional inhibitory concentration index incubated for 24 hrs in presence of polyoxin B by checkerboard broth microdilution method; type: functional
[30] = test system: Cryptococcus neoformans; experiment: Additive antifungal activity against Cryptococcus neoformans ATCC 32719 assessed as fractional inhibitory concentration index incubated for 24 hrs in presence of polyoxin B by checkerboard broth microdilution method; type: functional
[31] = test system: Candida albicans; experiment: Antifungal activity against Candida albicans ATCC 76615 assessed as inhibition of cell wall synthesis incubated for 24 hrs in absence of sorbitol; type: functional
[32] = test system: Aspergillus flavus; experiment: Antifungal activity against Aspergillus flavus ATCC 16870 assessed as inhibition of cell wall synthesis incubated for 24 hrs in absence of sorbitol; type: functional
[33] = test system: Aspergillus fumigatus; experiment: Antifungal activity against Aspergillus fumigatus GIMCC 3.19 assessed as inhibition of cell wall synthesis incubated for 24 hrs in absence of sorbitol; type: functional
[34] = test system: Cryptococcus neoformans; experiment: Antifungal activity against Cryptococcus neoformans ATCC 32719 assessed as inhibition of cell wall synthesis incubated for 24 hrs in absence of sorbitol; type: functional
[35] = test system: Aspergillus flavus; experiment: Synergistic antifungal activity against Aspergillus flavus ATCC 16870 assessed as fractional inhibitory concentration index incubated for 24 hrs in presence of fluconazole by checkerboard broth microdilution method; type: functional
[36] = Cytotoxicity against human A549 cells assessed as cell viability at 4 ug/ml incubated for 24 hrs by CCK-8 assay relative to control; type: toxicity, cell-based; conditions: at 4 µg/mL, read-out: Activity
[37] = Cytotoxicity against human A549 cells assessed as cell viability at 8 ug/ml incubated for 24 hrs by CCK-8 assay relative to control; type: toxicity, cell-based; conditions: at 8 µg/mL, read-out: Activity
[38] = Cytotoxicity against human A549 cells assessed as cell viability at 16 ug/ml incubated for 24 hrs by CCK-8 assay relative to control; type: toxicity, cell-based; conditions: at 16 µg/mL, read-out: Activity
[39] = Cytotoxicity against human A549 cells assessed as cell viability at 32 ug/ml incubated for 24 hrs by CCK-8 assay relative to control; type: toxicity, cell-based; conditions: at 32 µg/mL, read-out: Activity
[40] = Cytotoxicity against human A549 cells assessed as cell viability at 64 ug/ml incubated for 24 hrs by CCK-8 assay relative to control; type: toxicity, cell-based; conditions: at 64 µg/mL, read-out: Activity
[41] = test system: A549; experiment: Cytotoxicity against human A549 cells assessed as cell viability incubated for 24 hrs at 128 ug/ml by CCK-8 assay relative to control; conditions: dose 128 µg/ml

SMILES: O=C(/C=C/C(=O)Nc1ccccc1[N+](=O)[O-])Nc1ccc2c(c1)C(=O)NC1(CCSC1)N2 (stereo not given)
- inhibition [1]: 81.9%
- IC50 [2]: 102 µM
- MIC [3]: 1 µg/mL (≈ 2.21 µM)
- MIC [4]: 1 µg/mL (≈ 2.21 µM)
- MIC [5]: 1 µg/mL (≈ 2.21 µM)
- MIC [6]: 4 µg/mL (≈ 8.82 µM)
- MIC [7]: 128 µg/mL
- MIC [8]: 128 µg/mL
- MIC [9]: 64 µg/mL
- MIC [10]: 128 µg/mL
- MIC [11]: 8 µg/mL (≈ 17.6 µM)
- MIC [12]: 16 µg/mL (≈ 35.3 µM)
- MIC [13]: 8 µg/mL (≈ 17.6 µM)
- MIC [14]: 8 µg/mL (≈ 17.6 µM)
- MIC [15]: 8 µg/mL (≈ 17.6 µM)
- MIC [16]: 2 µg/mL
- MIC [17]: 2 µg/mL
- MIC [18]: 2 µg/mL
- MIC [19]: 1 µg/mL
- MIC [20]: 0.5 µg/mL
- MIC [21]: 4 µg/mL
- MIC [22]: 16 µg/mL
- MIC [23]: 16 µg/mL
- fractional inhibitory concentration index (FICI) [24]: 1.125
- fractional inhibitory concentration index (FICI) [25]: 1.125
- fractional inhibitory concentration index (FICI) [26]: 0.375
- fractional inhibitory concentration index (FICI) [27]: 0.75
- fractional inhibitory concentration index (FICI) [28]: 1.125
- fractional inhibitory concentration index (FICI) [29]: 0.625
- fractional inhibitory concentration index (FICI) [30]: 1.5
- MIC [31]: 8 µg/mL (≈ 17.6 µM)
- MIC [32]: 8 µg/mL (≈ 17.6 µM)
- MIC [33]: 4 µg/mL (≈ 8.82 µM)
- MIC [34]: 8 µg/mL (≈ 17.6 µM)
- fractional inhibitory concentration index (FICI) [35]: 1

SMILES: NC(=O)OC[C@H](O)[C@@H](O)[C@H](N)C(=O)N[C@H](C(=O)O)[C@H]1O[C@@H](n2cc(CO)c(=O)[nH]c2=O)[C@H](O)[C@@H]1O [POLYOXIN B]
- viability at 24 h, 4 ug/ml [36]: 99.3%
- viability at 24 h, 8 ug/ml [37]: 98.7%
- viability at 24 h, 16 ug/ml [38]: 97.9%
- viability at 24 h, 32 ug/ml [39]: 92.7%
- viability at 24 h, 64 ug/ml [40]: 91.2%
- inhibition [1]: 84.7%
- IC50 [2]: 93.5 µM
- MIC [3]: 8 µg/mL (≈ 15.8 µM)
- MIC [4]: 16 µg/mL (≈ 31.5 µM)
- MIC [5]: 16 µg/mL (≈ 31.5 µM)
- MIC [6]: 16 µg/mL (≈ 31.5 µM)
- MIC [7]: 128 µg/mL
- MIC [8]: 128 µg/mL
- MIC [9]: 128 µg/mL
- MIC [10]: 64 µg/mL
- MIC [31]: 8 µg/mL (≈ 15.8 µM)
- MIC [32]: 16 µg/mL (≈ 31.5 µM)
- MIC [33]: 16 µg/mL (≈ 31.5 µM)
- MIC [34]: 16 µg/mL (≈ 31.5 µM)
- viability [41]: 84.3%
